Measurements from patent publication US6767705B2, “Reagents and methods for identifying and modulating expression of genes regulated by retinoids” (The Board of Trustees of the University of Illinois, priority 2000, dated 2004).

How the values were obtained:
[1] = test system: MCF-7 cells; test: cDNA microarray hybridization (Human UniGEM V) of RA-treated vs untreated MCF-7 cells; assay type: cell-based; conditions: 100 nM RA, 5 days
Description: To study gene expression changes, poly(A)+ RNA was isolated from untreated MCF-7 cells and from cells treated for 5 days with 100 nM RA. cDNA was prepared from these RNA populations and the cDNA hybridized with a cDNA microarray (Human UniGEM V cDNA microarray, Incyte Genomics, St. Louis, Mo.) that contains >7,000 cDNAs of different human genes and ESTs. cDNA probe synthesis, hybridization with the microarray and signal analyses were conducted by IncyteGenomics as a commercial service.

[2] = test system: MCF-7 cells; test: RT-PCR analysis of expression of retinoid-inducible genes in MCF-7 cells; assay type: cell-based, human
Description: FIGS. 2A through 2C show the results of RT-PCR analysis of changes in the expression of retinoid-inducible genes as described in Example 1. The identity of each gene is followed by the NCBI Accession Number (in parentheses). […] The designations “R5” and “R8” correspond to days 5 and 8 after release from 5-day RA treatment, respectively.
RT-PCR analysis was carried out essentially as described (Noonan et al., 1990, Proc. Natl. Acad. Sci. USA 87: 7160-7164), using β-actin as an internal normalization standard.

[3] = test system: p21; conditions: retinoic acid-induced growth inhibition in MCF-7 cells; cited from earlier work
[4] = test system: MCF-7 cells; test: Clonogenic assay (colony formation / plating efficiency) of MCF-7 cells after RA treatment; assay type: cell-based, human
Description: FIGS. 1A and 1B are graphs showing the effects of retinoic acid (RA) on colony formation by MCF-7 cells. In each assay, 1.5×10^5 cells were plated per P100, in the absence or in the presence of RA. For clonogenic assays, cells were trypsinized after treatment, and 2,500 cells were plated per P100 and grown in drug-free media. […] Each point represents the mean and standard deviation for triplicate assays.
Clonogenic assays were performed to analyze the differences in proliferative capacity in MCF-7 cells after treatment with 100 nM RA for varying times. Cells were exposed to 100 nM RA for 1-7 days and tested for their capacity to form colonies after treatment at each time point. […] The decrease was initially rapid (from 100% to 40% plating efficiency after 2 days incubation with RA) and decreased more slowly to a final plating efficiency of about 10% at day 7.

[5] = test system: MCF-7 human breast carcinoma cells; conditions: cited from earlier work
[6] = test system: MCF-7 cells; test: Immunocytochemical and immunoblotting analysis of IGFBP-3, HIF2α/EPAS-1 and EPLIN proteins in MCF-7 cells; assay type: cell-based, human; conditions: 100 nM RA for 5 days, MCF-7 cells (FIG. 3A, 3B)
Description: FIG. 3A is a photomicrograph and FIG. 3B is a photograph of an immunoblot showing induction of IGFBP-3, HIF2α/EPAS-1 and EPLIN proteins in RA-treated cells.
Induction of three genes in this group was tested and confirmed at the protein level, by immunocytochemical assays, shown in FIG. 3A, using rabbit polyclonal antibody against EPLIN (a gift of Dr. David Chang, UCLA), and goat polyclonal antibodies against IGFBP-3 and EPAS-1/HIF-2α (Santa Cruz Biotechnology, Inc., Santa Cruz, Calif.) and standard techniques. Antibody staining was detected using Vectastain kit (Vector Labs, Burlingame, Calif.) according to the manufacturer's instructions.
The EPLIN gene encodes two protein isoforms. EPLINα and EPLINβ, with the larger (β) isoform showing a stronger growth-inhibitory effect. The observed induction of EPLIN gene expression was confirmed by immunocytochemical and immunoblotting assays (results shown in FIGS. 3A and 3B). These assays were performed using rabbit polyclonal antibody against EPLIN (a gift of Dr. David Chang, UCLA) and were carried out by standard techniques. Antibody staining was detected using Vectastain kit (Vector Labs) for immunocytochemistry and horseradish peroxidase-conjugated goat anti-rabbit IgG (Santa Cruz) for immunobloting.

[7] = test system: xenografts of MCF-10T neo mammary epithelial cells; conditions: xenografts in vivo after treatment with fenretinide; cited from earlier work
[8] = 100 nM RA, MCF-7 cells (FIG. 2A)

Row | SMILES | decrease in balanced differential expression, 20 genes [1] | increase in balanced differential expression, 27 genes [1] | maximum decrease in relative hybridization intensity of any gene in the microarray [1] [fold] | maximum increase in relative hybridization intensity of any gene in the microarray [1] [fold] | time course of changes in RNA levels of the 13 genes [2, 8] | time to maximum expression of RNF [2, 8] | RA dose-dependence of gene expression of the 13 genes ([2]; 40 hr treatment, lowest dose 10 nM, MCF-7 cells (FIG. 2B)) | induction of 13 upregulated genes by RT-PCR ([2]; RA-treated MCF-7 cells, printed as '5-10 fold or more' (FIGS. 2A, 2B)) | induction of p21 [3] | plating efficiency, normalized to untreated control ([4]; 100 nM RA, after 2 days incubation, MCF-7 cells (FIG. 1A)) [%] | final plating efficiency, normalized to untreated control ([4]; 100 nM RA, day 7, MCF-7 cells (FIG. 1A)) | plating efficiency at varying concentrations of RA ([4]; 40 hr treatment, indicated doses, lowest 10 nM, MCF-7 cells (FIG. 1B)) | continuous exposure required for the growth arrest effect to become apparent ([5]; low dose RA (between 10-100 nM), MCF-7 cells) [days] | growth arrest and cell death in MCF-7 cells ([5]; relatively low doses of RA (between 10-100 nM)) | expression of IGFBP-3, EPAS-1/HIF2α and EPLIN proteins [6] | induction of the 13 genes ([2]; 1 μM fenretinide, MCF-7 cells (FIG. 2C)) | induction of senescence-associated marker SA-β-gal [7]
1 | CC1=C(/C=C/C(C)=C/C=C/C(C)=C/C(=O)O)C(C)(C)CCC1 [RA, all-trans retinoic acid] | 1.7-3.0 fold | 1.4-2.5 fold | ≤ 3 | ≤ 2.5 | many of them increased their expression between days 1 and 4 of RA treatment | maximum expression after just one day of treatment | almost all of these genes were induced even by the lowest (10 nM) dose | 5-10 fold | does not induce p21 | 40 | about 10% | dose-dependent reduction in plating efficiency at all tested doses (as low as 10 nM) | 4 to 6 | induce irreversible growth arrest in MCF-7 cells, while producing only a minor reduction in cell numbers caused by cell death | increased expression of the corresponding proteins | – | –
2 | CC1=C(/C=C/C(C)=C/C=C/C(C)=C/C(=O)Nc2ccc(O)cc2)C(C)(C)CCC1 [fenretinide, 4-hydroxyphenylretinamide] | – | – | – | – | – | – | – | – | – | – | – | – | – | – | – | All 13 genes were also induced | Induction of SA-β-gal was also observed
